From PMC7352952, “Peptides Derived from (RRWQWRMKKLG)2-K-Ahx Induce Selective Cellular Death in Breast Cancer Cell Lines through Apoptotic Pathway” (International Journal of Molecular Sciences, 2020)
In brackets after ≈: the same amount, converted by molar mass. Where two headings read alike, the source gives them in different places. Bridge positions count the residues as written; N and C are the ends. Square brackets hold non-standard residues; d marks the D form. Peptide text beside a SMILES is read from it. I, II: the chains in the order shown. Ahx = NCCCCCC(=O)O

Columns and labels:
[1] = test system: MCF-7 cells; assay: Type of cell death (apoptosis/necrosis), Annexin V/PI flow cytometry; type: cell-based, human; conditions: MCF-7, peptide 15 µM, 24 h, annexin V and PI
Protocol: The cells were seeded and synchronized in boxes of 24 wells at a concentration of 4 × 10^4 cells/well in 400 μL/well, adhesion and synchronization were allowed in the same way as in Section 4.8, and the culture medium was replaced with medium containing the peptide to be evaluated and incubated for 2 or 24 h. Subsequently, the cells were harvested with trypsin, centrifuged at 2500 rpm for 10 min, washed with PBS, and resuspended in 10 μL of staining buffer with the fluorochromes (10 mM Hepes pH 7.4; 10 mM NaCl and 2.5 mM CaCl2 containing 1 μL of PI fluorochrome and 1 μL of Annexin V). Cells with the fluorochromes were incubated at 37 °C in the dark for 15 min and resuspended in 80 μL of staining buffer without fluorochromes for analysis via flow cytometry. The positive control of necrosis was: cells treated with EDTA 15 mM for 60 min, and apoptotic: cells treated with Actinomycin at 10 μM for 24 h. Negative control: cells without treatment; compensation controls: (i) cells stained only with Annexin, and (ii) only with PI; population control: unstained and untreated cells.

[2] = test system: MCF-7 cell line; assay: MTT viability test, MCF-7 cells; type: cell-based, human; conditions: for maximum cytotoxic effect, MCF-7: peptide 200 µg/mL, regardless of treatment time (2, 24, 48 h)
Protocol: (§1) For all cell lines, the medium used was Dulbecco’s Modified Eagle’s Medium (DMEM)/Nutrient Mixture F-12 Ham. For the HTB-132, MCF-7, and MCF-12A lines, the medium was supplemented with 10% fetal bovine serum (SFB), and 1.5 g/L NaHCO3 and NaOH were added up to pH 7.4, amphotericin (200 μg/mL), and 1% penicillin and streptomycin. For the primary culture cells of bovine mammary epithelium and fibroblasts, in addition to the above, hydrocortisone (250 μg/mL) was added. All media were filtered through a 0.22 μm membrane.
(§2) Briefly, the cells were seeded with a complete medium in 96-well plates at a rate of 10,000 cells and 100 µL per well, and adhesion to the plates was allowed for 24 h. Subsequently, the complete medium was removed and an incomplete medium was added for synchronization for another 24 h. The cells were then incubated at 37 °C for 2, 24, or 48 h with 100 μL of peptide at the concentrations to be evaluated (200, 100, 50, 25, 12.5, 6.25 and 3.1 μg/mL). Next, the peptide was removed from the box, and 100 µL of incomplete medium with 10% 3-4,5-dimethylthiazol-2-yl-2,5-diphenyltetrazole (MTT) bromide was added and incubated for 4 h. The medium was replaced with 100 μL of isopropanol (IPA), and after 30 min of incubation at 37 °C, the absorbance was measured at 575 nm. As a negative control, an incomplete culture medium with 10% MTT was used, and as a positive control, cells without MTT treatment were used.

[3] = test system: MCF-12 cell line; type: cell-based, human
Protocol: as §1, §2

[4] = test system: breast cancer cell lines HTB-132 and MCF-7; type: cell-based, human; conditions: 24 h
Protocol: as §2

[5] = test system: HTB-132 cell line; assay: MTT viability test, HTB-132 cells; type: cell-based, human; conditions: for cytotoxic effect against HTB-132 compared with ^26[M] (in words) / IC50, cytotoxic effect, HTB-132: MTT; for cytotoxic effect against HTB-132 compared with ^26[M] (in words) / IC50: 24 h; for IC50, cytotoxic effect, HTB-132: 24 h at 37 °C, mean of n = 3; for IC50: human, pH 7.4
Protocol: as §1, §2

[6] = test system: MCF-7 cells; assay: Cell morphology and size by inverted microscope; type: cell-based, human; conditions: MCF-7, 90 min of treatment, 37 °C; from 100.27 μm before; average of 100 measurements; Figure 3: 100 µg/mL
Protocol: Cell morphology was monitored before and after treatment with ^26[L] or ^26[F] at different times, using an inverted microscope coupled to an AxioCam ICc1 camera (Figure 3). The untreated cells had normal morphologic characteristics as polygonal, flattened, and elongated cells with long and defined axons (data not shown). After 5 min of treatment with the peptide, most cells retained their morphology; however, some began to appear rounded and shrunken. After 90 min, the cells treated with the peptide (^26[L] or ^26[F]) took on a rounded shape, and shrinkage was observed, going from an average size of 100.27 μm to 39.38 µm. […] At 24 h of treatment, the appearance of small vacuoles was observed, presumably associated with late apoptosis events. Finally, it was observed that the effect of the peptide was sustained up to 48 h since at that time no recovery of cell morphology was observed.
Figure 3 Micrography of MCF-7 cells treated with peptide ^26[F] at 100 µg/mL. The cells were incubated in the absence (A) or the presence of the peptide at (B) 5 min, (C) 90 min, (D) 240 min, (E) 24 h, and (F) 48 h at 37 °C. The cell size was determined as an average of 100 measurements, using an AxioCam ICc1 camera.

[7] = test system: MCF-7 cells; assay: Integrity of the cytoplasmic membrane, SYTO9/PI flow cytometry; type: cell-based, human; conditions: MCF-7, peptide 15 µM, PI and SYTO9
Protocol: The cells with complete medium were seeded and synchronized in boxes of 24 wells in a concentration of 4 × 10^4 cells/well in a volume of 400 μL/well, and adhesion to the plate was allowed for 24 h [52]. Then the complete medium was replaced by incomplete medium for synchronization of the cells for an additional 24 h. […] The cells were harvested by adding 200 μL of trypsin and incubating for 10 min. The trypsin was quenched with 200 µL of complete medium, and the cells were centrifuged at 2500 rpm for 10 min. The supernatant was discarded, and the pellet was washed with 100 µL PBS and centrifuged under the same conditions previously described. The supernatant was discarded, and the cells were stained with 30 μL of a solution from the LIVE/DEAD® FungaLigthTM commercial kit (Invitrogen) containing the mixture of fluorochromes (0.5 μL of SYTO9 and/or 0.5 μL of propidium iodide (PI) with 99 μL of PBS). Subsequently, the cells were incubated at room temperature and in the dark for 20 min and centrifuged, and the supernatant was discarded. The pellet was resuspended in 100 μL of PBS and analyzed via flow cytometry in a BD Accuri C6 device. The events were recorded using the green channel (FL1) on the abscissa axis and the red (FL3) on the ordinate axis. Negative control: untreated cells marked with both fluorophores; positive control: cells treated with actinomycin 10 μg/mL for 24 h [52]. […]

[8] = test system: MCF-7 cells; assay: Mitochondrial membrane depolarization, JC-1 flow cytometry; type: cell-based, human; conditions: MCF-7, peptide 15 µM
Protocol: For this test, the MitoProbeTM JC-1 Assay kit (M34152 from Termofisher, Walthan, MA, USA) was used according to the supplier’s recommendations. The cells seeded and synchronized in a box of 24 wells (4 × 10^4 cells/well) were incubated with 400 μL of peptide to be evaluated at 2 and 24 h. The cells were then trypsinized and collected by centrifugation at 400 g × 5 min. The resulting pellet was stained by adding 100 μL of JC1 “working solution” (1:100 JCI solution reconstituted in DMSO: buffer assay 1×) and incubated at 37 °C for 20 min. Subsequently, the cells were washed twice with 1× buffer assay and finally resuspended in 100 μL of 1× buffer assay for reading on the cytometer. Negative control: cells without treatment; positive control: cells treated with 10 μM actinomycin for 24 h.

[9] = Stability during storage; type: physicochemical; conditions: Met residue prone to oxidation; Supplementary Figure S1
[10] = test system: HTB-132 cell line; assay: MTT viability test, HTB-132 cells; type: cell-based, human; conditions: 24 h, concentration range 1–100 µg/mL
[11] = test system: MDA-MB 468 breast cancer cells; conditions: peptide 100 µg/mL (30 µM); earlier work, ref not given; cited from earlier work
Source text: (§3) Breast cancer is the most common cancer type diagnosed worldwide. There are 2.1 million cases annually, and 627,000 deaths of women due to this disease were reported in 2018 [5]. […] However, when this motif was modified or included in longer sequences, the cytotoxic effect against human cancer cell lines increased. In ...

[12] = test system: MDA-MB 231 breast cancer cells; conditions: peptide 100 µg/mL (30 µM); earlier work, ref not given; cited from earlier work
Source text: as §3

[13] = MTT, 24 h at 37 °C, three independent experiments with n = 4 each

Compound	cytotoxic effect against MCF-7 compared with ^26[M] (in words) ([2]; MTT, 24 h)	IC50, cytotoxic effect, MCF-7 [2, 13] [µg/mL]	maximum cytotoxic effect, MCF-7 ([2]; MTT)	IC50 ([2]; human, 24 h, pH 7.4) [µM]	cytotoxic effect against MCF-12 compared with HTB-132 and MCF-7 (in words) [3]	cytotoxic effect against HTB-132 compared with ^26[M] (in words) [5]	IC50, cytotoxic effect, HTB-132 [5] [µg/mL]	IC50 [5] [µM]	average cell size after treatment [6] [µm]	further results
CC(C)C[C@H](NC(=O)[C@H](CCCCN)NC(=O)[C@H](CCCCN)NC(=O)[C@H](Cc1ccccc1)NC(=O)[C@H](CCCNC(=N)N)NC(=O)[C@H](Cc1c[nH]c2ccccc12)NC(=O)[C@H](CCC(N)=O)NC(=O)[C@H](Cc1c[nH]c2ccccc12)NC(=O)[C@H](CCCNC(=N)N)NC(=O)[C@@H](N)CCCNC(=N)N)C(=O)NCC(=O)NCCCC[C@H](NC(=O)CNC(=O)[C@H](CC(C)C)NC(=O)[C@H](CCCCN)NC(=O)[C@H](CCCCN)NC(=O)[C@H](Cc1ccccc1)NC(=O)[C@H](CCCNC(=N)N)NC(=O)[C@H](Cc1c[nH]c2ccccc12)NC(=O)[C@H](CCC(N)=O)NC(=O)[C@H](Cc1c[nH]c2ccccc12)NC(=O)[C@H](CCCNC(=N)N)NC(=O)[C@@H](N)CCCNC(=N)N)C(=O)NCCCCCC(N)=O [^26[F], (RRWQWRFKKLG)2-K-Ahx] (I: H-RRWQWRFKKLGK[Ahx]-NH2 / II: H-RRWQWRFKKLG; amide I:12-II:C)	greater cytotoxic effect against MCF-7 cells than the peptide	19 (≈ 5.68 µM)	approximately 90%	6	lower cytotoxic effect against MCF-12 cells than against breast cancer cell lines	greater cytotoxic effect against cancer cells than the original peptide	43 (≈ 12.9 µM)	13	39.38	cell population dyed with both fluorophores (apoptotic process) [1]: 54%; cell population dyed with only PI (necrotic process) [1]: 21%; IC50 ([3]; 24 h): 21 µM; IC50, non-tumorigenic cell line MCF-12 ([3]; MTT, 24 h at 37 °C): 70 µg/mL (≈ 20.9 µM); IC50 [4]: 6 to 13 µM; cell population with cytoplasmic membrane affected [7]: 10%; population with depolarization of the mitochondrial membrane [8]: 19%
CC(C)C[C@H](NC(=O)[C@H](CCCCN)NC(=O)[C@H](CCCCN)NC(=O)[C@H](CC(C)C)NC(=O)[C@H](CCCNC(=N)N)NC(=O)[C@H](Cc1c[nH]c2ccccc12)NC(=O)[C@H](CCC(N)=O)NC(=O)[C@H](Cc1c[nH]c2ccccc12)NC(=O)[C@H](CCCNC(=N)N)NC(=O)[C@@H](N)CCCNC(=N)N)C(=O)NCC(=O)NCCCC[C@H](NC(=O)CNC(=O)[C@H](CC(C)C)NC(=O)[C@H](CCCCN)NC(=O)[C@H](CCCCN)NC(=O)[C@H](CC(C)C)NC(=O)[C@H](CCCNC(=N)N)NC(=O)[C@H](Cc1c[nH]c2ccccc12)NC(=O)[C@H](CCC(N)=O)NC(=O)[C@H](Cc1c[nH]c2ccccc12)NC(=O)[C@H](CCCNC(=N)N)NC(=O)[C@@H](N)CCCNC(=N)N)C(=O)NCCCCCC(N)=O [^26[L], (RRWQWRLKKLG)2-K-Ahx] (I: H-RRWQWRLKKLGK[Ahx]-NH2 / II: H-RRWQWRLKKLG; amide I:12-II:C)	greater cytotoxic effect against MCF-7 cells than the peptide	66 (≈ 20.1 µM)	~85%	20	lower cytotoxic effect against MCF-12 cells than against breast cancer cell lines	greater cytotoxic effect against cancer cells than the original peptide	32 (≈ 9.77 µM)	10	39.38	IC50, non-tumorigenic cell line MCF-12 ([3]; 24 h): > 100 µg/mL
CSCC[C@H](NC(=O)[C@H](CCCNC(=N)N)NC(=O)[C@H](Cc1c[nH]c2ccccc12)NC(=O)[C@H](CCC(N)=O)NC(=O)[C@H](Cc1c[nH]c2ccccc12)NC(=O)[C@H](CCCNC(=N)N)NC(=O)[C@@H](N)CCCNC(=N)N)C(=O)N[C@@H](CCCCN)C(=O)N[C@@H](CCCCN)C(=O)N[C@@H](CC(C)C)C(=O)NCC(=O)NCCCC[C@H](NC(=O)CNC(=O)[C@H](CC(C)C)NC(=O)[C@H](CCCCN)NC(=O)[C@H](CCCCN)NC(=O)[C@H](CCSC)NC(=O)[C@H](CCCNC(=N)N)NC(=O)[C@H](Cc1c[nH]c2ccccc12)NC(=O)[C@H](CCC(N)=O)NC(=O)[C@H](Cc1c[nH]c2ccccc12)NC(=O)[C@H](CCCNC(=N)N)NC(=O)[C@@H](N)CCCNC(=N)N)C(=O)NCCCCCC(N)=O [^26[M], (RRWQWRMKKLG)2-K-Ahx] (I: H-RRWQWRMKKLGK[Ahx]-NH2 / II: H-RRWQWRMKKLG; amide I:12-II:C)	–	> 200	–	–	–	–	96 (≈ 29 µM)	–	–	stability during storage (in words) [9]: stability problems; cytotoxic effect at the maximum evaluated concentration, HTB-132 [10]: ~55%; cytotoxic effect against MCF-7 (in words) ([2]; MTT, 24 h): does not exhibit a significant cytotoxic effect; IC50 ([2]; MTT, 24 h at 37 °C, three independent experiments with n = 4 each, read-out: IC50, cytotoxic effect, MCF-7): > 60 µM; cellular viability, MDA-MB 468 [11]: ~ 0%; cytotoxic effect, MDA-MB 468 [11]: ~100%; cellular viability, MDA-MB 231 [12]: ~ 0%; cytotoxic effect, MDA-MB 231 [12]: ~100%
